ChEMBL document CHEMBL1201862, “PubChem BioAssay data set” (2004)
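A five-concentration, 48-hour dose response in 96-well plates underlies each endpoint, interpolated linearly between surrounding concentrations. Here, GI50 denotes the concentration required for 50% inhibition of growth.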 Calls of active or inactive are those of the source. No stated cut-off is given here; in the data, active = GI50 up to about 1.1 µM and inactive = higher.

Experiments:
Assay in all cases: DTP human tumour cell line panel, 48 h
CCRF-CEM = tested on: CCRF-CEM
HCT-15 = tested on: HCT-15
HOP-62 = tested on: HOP-62
HOP-92 = tested on: HOP-92
HT-29 = tested on: HT-29
K562 = tested on: K562
M14 = tested on: M14
MDA-N = tested on: MDA-N
NCI-H23 = tested on: NCI-H23
NCI-H460 = tested on: NCI-H460
NCI-H522 = tested on: NCI-H522
NCI/ADR-RES = tested on: NCI/ADR-RES
RPMI-8226 = tested on: RPMI-8226
RXF 393 = tested on: RXF 393
SF-295 = tested on: SF-295
SF-539 = tested on: SF-539
SK-MEL-5 = tested on: SK-MEL-5
SK-OV-3 = tested on: SK-OV-3
SW-620 = tested on: SW-620
OVCAR-5 = tested on: OVCAR-5

SMILES	GI50 (CCRF-CEM)	GI50 (HCT-15) [µM]	GI50 (HOP-62)	GI50 (HOP-92)	GI50 (HT-29)	GI50 (K562)	GI50 (M14)	GI50 (MDA-N)	GI50 (NCI-H23)	GI50 (NCI-H460)	GI50 (NCI-H522)	GI50 (NCI/ADR-RES)	GI50 (RPMI-8226)	GI50 (RXF 393)	GI50 (SF-295)	GI50 (SF-539)	GI50 (SK-MEL-5)	GI50 (SK-OV-3)	GI50 (SW-620)	GI50 (OVCAR-5)
CCOc1cccc(-c2cc(O)c3cc4c(cc3n2)OCO4)c1	0.084 µM (active)	0.189	0.621 µM (active)	0.264 µM (active)	0.221 µM (active)	0.0516 µM (active)	0.371 µM (active)	0.0214 µM (active)	0.396 µM (active)	0.318 µM (active)	0.0914 µM (active)	0.0828 µM (active)	0.318 µM (active)	0.0953 µM (active)	0.0735 µM (active)	0.13 µM (active)	0.0505 µM (active)	0.166 µM (active)	0.0573 µM (active)	
O=C(O)c1[nH]c2c([N+](=O)[O-])cc([N+](=O)[O-])cc2c1C(=O)O	> 100 µM (inactive)	> 100	> 100 µM (inactive)	> 100 µM (inactive)	> 100 µM (inactive)	> 100 µM (inactive)	56.1 µM (inactive)	29.9 µM (inactive)	> 100 µM (inactive)	> 100 µM (inactive)	78.9 µM (inactive)	> 100 µM (inactive)		> 100 µM (inactive)	> 100 µM (inactive)	> 100 µM (inactive)	> 100 µM (inactive)	> 100 µM (inactive)	> 100 µM (inactive)	> 100 µM (inactive)
NNC(=O)CNc1cccc(Br)c1		> 100	> 100 µM (inactive)	> 100 µM (inactive)	> 100 µM (inactive)	> 100 µM (inactive)	> 100 µM (inactive)	> 100 µM (inactive)	> 100 µM (inactive)	> 100 µM (inactive)	> 100 µM (inactive)	> 100 µM (inactive)	> 100 µM (inactive)	> 100 µM (inactive)	> 100 µM (inactive)	> 100 µM (inactive)	> 100 µM (inactive)	> 100 µM (inactive)	> 100 µM (inactive)	> 100 µM (inactive)
COc1ccc2c(C)cc(C)nc2n1	> 100 µM (inactive)	> 100	> 100 µM (inactive)	> 100 µM (inactive)	> 100 µM (inactive)	> 100 µM (inactive)	> 100 µM (inactive)	> 100 µM (inactive)	> 100 µM (inactive)	> 100 µM (inactive)	> 100 µM (inactive)	> 100 µM (inactive)	> 100 µM (inactive)	> 100 µM (inactive)	> 100 µM (inactive)		> 100 µM (inactive)	> 100 µM (inactive)	> 100 µM (inactive)	> 100 µM (inactive)
OCC1OC(NC(=S)NCSCCC(F)(F)C(F)(F)C(F)(F)C(F)(F)C(F)(F)C(F)(F)F)C(O)C(O)C1O (stereo not given)	23.3 µM (inactive)	72.6	32.4 µM (inactive)	22.7 µM (inactive)	34.2 µM (inactive)	19.9 µM (inactive)	17 µM (inactive)	43.6 µM (inactive)	39.5 µM (inactive)	34 µM (inactive)		> 100 µM (inactive)	63.8 µM (inactive)	35.2 µM (inactive)	23.1 µM (inactive)	16.6 µM (inactive)	> 10 µM (inactive)	82 µM (inactive)	39.4 µM (inactive)	56.1 µM (inactive)
COc1c2c(cc3c1OCO3)[C@]13C=C[C@H](OC)C[C@H]1N(C2)CC3O (stereo not given in full)	> 100 µM (inactive)	> 100	> 100 µM (inactive)	> 100 µM (inactive)	> 100 µM (inactive)		> 100 µM (inactive)	> 100 µM (inactive)	> 100 µM (inactive)	> 100 µM (inactive)	> 100 µM (inactive)	> 100 µM (inactive)	> 100 µM (inactive)	> 100 µM (inactive)	> 100 µM (inactive)	> 100 µM (inactive)	> 100 µM (inactive)	> 100 µM (inactive)	> 100 µM (inactive)	> 100 µM (inactive)
Nc1n[nH]c2nc3ccc(C(F)(F)F)cc3nc12	17 µM (inactive)	23.1	18.5 µM (inactive)	25.1 µM (inactive)	29.8 µM (inactive)	42.7 µM (inactive)	33.3 µM (inactive)	35.3 µM (inactive)	22.2 µM (inactive)	20.5 µM (inactive)	20.3 µM (inactive)	33.4 µM (inactive)	62.2 µM (inactive)	16.4 µM (inactive)	24.5 µM (inactive)		48.9 µM (inactive)	20.5 µM (inactive)	19.3 µM (inactive)	25.6 µM (inactive)
Cc1cc(S(=O)(=O)[N-]C(=C(C#N)C#N)[n+]2ccc(N(C)C)cc2)c(SCC(=O)O)cc1Cl	> 100 µM (inactive)	> 100	> 100 µM (inactive)	10 µM (inactive)	> 100 µM (inactive)	> 100 µM (inactive)	> 100 µM (inactive)	> 100 µM (inactive)	> 100 µM (inactive)	> 100 µM (inactive)	45.8 µM (inactive)	> 100 µM (inactive)	> 100 µM (inactive)	> 100 µM (inactive)	> 100 µM (inactive)	> 100 µM (inactive)	> 100 µM (inactive)	> 100 µM (inactive)		> 100 µM (inactive)
Cc1ccc(S(=O)(=O)N2CCCSCCN(S(=O)(=O)c3ccc(C)cc3)CCCSCC2)cc1			> 100 µM (inactive)	> 100 µM (inactive)	> 100 µM (inactive)	> 100 µM (inactive)	> 100 µM (inactive)	> 100 µM (inactive)	> 100 µM (inactive)	> 100 µM (inactive)		> 100 µM (inactive)	> 100 µM (inactive)	> 100 µM (inactive)	> 100 µM (inactive)	> 100 µM (inactive)	> 100 µM (inactive)	> 100 µM (inactive)	> 100 µM (inactive)	> 100 µM (inactive)
Cc1cc(C)c2c(n1)S(=O)(=O)N(CCCN1CCN(c3cccc(C(F)(F)F)c3)CC1)c1c-2nn(C)c1C	66.7 µM (inactive)	44.5	> 100 µM (inactive)	45.3 µM (inactive)	16.6 µM (inactive)	30.3 µM (inactive)	43.9 µM (inactive)	39.9 µM (inactive)	61.2 µM (inactive)	89.3 µM (inactive)	57.4 µM (inactive)	53.3 µM (inactive)		> 100 µM (inactive)	52.7 µM (inactive)	> 100 µM (inactive)	23.1 µM (inactive)	> 100 µM (inactive)	> 100 µM (inactive)	> 100 µM (inactive)
On1c(-c2ccccc2)nc2ccccc2c1=S	1.55 µM (inactive)	1.36	7.35 µM (inactive)	> 100 µM (inactive)	6.64 µM (inactive)	3.91 µM (inactive)	2.91 µM (inactive)	18.9 µM (inactive)	3.43 µM (inactive)	0.583 µM (active)		4.2 µM (inactive)	3.27 µM (inactive)	25.5 µM (inactive)	2.7 µM (inactive)	4.32 µM (inactive)	3.58 µM (inactive)	6.92 µM (inactive)	6.82 µM (inactive)	> 100 µM (inactive)
C/C=C(\C)[C@@H](O)C(=O)O[C@@H]1CC(C(C)(C)O)[C@](C)(CCC(=O)OC)[C@H]2[C@H](OC(=O)[C@H](O)[C@H](C)CC)C[C@]3(C)C(=CC[C@H]3[C@H]3CO[C@H](C=C(C)C)C3)[C@]12C (stereo not given in full)		19	35.3 µM (inactive)	23.3 µM (inactive)	19 µM (inactive)	17.8 µM (inactive)	18.2 µM (inactive)	20 µM (inactive)	18.4 µM (inactive)	18.5 µM (inactive)	14.9 µM (inactive)	16.4 µM (inactive)	15.3 µM (inactive)	16.4 µM (inactive)	35.4 µM (inactive)	20.5 µM (inactive)	17.4 µM (inactive)		22.7 µM (inactive)	20.5 µM (inactive)
CC(=O)OCC1OC(N2C(=O)/C(=C\c3ccc(Cl)cc3)C(N)=Nc3ccccc32)C(OC(C)=O)C(OC(C)=O)C1OC(C)=O (stereo not given)		23	29.2 µM (inactive)	17.2 µM (inactive)	25.7 µM (inactive)	12.5 µM (inactive)	20.2 µM (inactive)	17.6 µM (inactive)	25.9 µM (inactive)	28.4 µM (inactive)		51.1 µM (inactive)	2.24 µM (inactive)	4.34 µM (inactive)	38.8 µM (inactive)	10.1 µM (inactive)	12.7 µM (inactive)	51.1 µM (inactive)	23.2 µM (inactive)	33.4 µM (inactive)
CCCCON1C[C@H](OC(C)=O)C(OC(C)=O)[C@H](OC(C)=O)C1 (stereo not given in full)	> 100 µM (inactive)	> 100	> 100 µM (inactive)	> 100 µM (inactive)	> 100 µM (inactive)	> 100 µM (inactive)	> 100 µM (inactive)	> 100 µM (inactive)	> 100 µM (inactive)	> 100 µM (inactive)	> 100 µM (inactive)	> 100 µM (inactive)	> 100 µM (inactive)	> 100 µM (inactive)	> 100 µM (inactive)	> 100 µM (inactive)	> 100 µM (inactive)	> 100 µM (inactive)	> 10 µM (inactive)	
CC1CCCN(CP(=O)(c2ccccc2)c2ccccc2)C1 (stereo not given)		> 100	> 100 µM (inactive)	> 100 µM (inactive)		> 100 µM (inactive)	> 100 µM (inactive)	> 100 µM (inactive)	> 100 µM (inactive)	92.5 µM (inactive)	> 100 µM (inactive)	> 100 µM (inactive)	43.5 µM (inactive)	> 100 µM (inactive)	> 100 µM (inactive)	> 100 µM (inactive)	> 100 µM (inactive)	> 100 µM (inactive)	> 100 µM (inactive)	> 100 µM (inactive)
